Test results reported in patent US20240255506A1, “PAIRED-CELL PROFILING SYSTEMS FOR HIGH-THROUGHPUT SCREENING SYNCYTIUM FORMATION” (priority 2023, published 2024).

Tests used:
SARS-COV-2 D614G = settings: hamster, in vivo; for infectious SARS-COV-2 titer in lung tissues (plaque assay) / virus RdRp gene expression level in lung tissues: ip
[1] = test system: SARS-COV-2 D614G live virus; type: cell-based; settings: Vero E6 and Vero E6-TMPRSS2 GFP1-10/GFP11 cells; CPZ 16 μM, promethazine 12.5 μM, fluvoxamine 12.5 μM, 24 h
[2] = test system: SARS-COV-2 spike-induced syncytium formation in Vero E6 cells; type: cell-based; settings: Vero E6-GFP1-10 receiver cells, HEK293T-GFP-11 sender cells expressing WT D614G spike; drugs added 3 h after seeding, imaged after 24 h; vs DMSO-treated control
SARS-COV-2 D614G virus = type: cell-based; settings: both cell lysate and supernatant samples after virus infection; Vero E6, Vero E6-TMPRSS2 and A549-ACE2 cells
[3] = test system: SARS-COV-2 spike-induced syncytium formation in A549-ACE2 cells; type: cell-based; settings: A549-ACE2-GFP1-10 receiver cells, HEK293T-GFP-11 sender cells expressing WT D614G spike; drugs added 3 h after seeding, imaged after 24 h; vs DMSO-treated control

SMILES	area of positivity of the SARS-COV-2 nucleocapsid protein in lung tissues (SARS-COV-2 D614G)	body weight of the hamsters (SARS-COV-2 D614G)	syncytium-like multinucleated cells within SARS-COV-2 nucleocapsid-positively stained lung tissues (SARS-COV-2 D614G)	infectious SARS-COV-2 titer in lung tissues (plaque assay) (SARS-COV-2 D614G)	virus RdRp gene expression level in lung tissues (SARS-COV-2 D614G)	syncytium formation in SARS-COV-2 D614G-infected cells [1]	syncytium formation [2]	expression levels of SARS-COV-2 RNA-dependent RNA polymerase (RdRp) (SARS-COV-2 D614G virus)	syncytium formation [3]
CN(C)CCCN1c2ccccc2Sc2ccc(Cl)cc21 [chlorpromazine]	reduced	no significant change	less syncytium-like multinucleated cells were detected	reduced	reduced	inhibited syncytium formation	greatly impeded syncytium formation	greatly reduced	greatly impeded syncytium formation
CC(CN1c2ccccc2Sc2ccccc21)N(C)C (stereo not shown) [promethazine]						inhibited syncytium formation	greatly impeded syncytium formation	greatly reduced	greatly impeded syncytium formation
COCCCC/C(=N\OCCN)c1ccc(C(F)(F)F)cc1 [fluvoxamine]	reduced	no significant change	less syncytium-like multinucleated cells were detected	reduced	reduced	inhibited syncytium formation	greatly impeded syncytium formation	greatly reduced	greatly impeded syncytium formation
